What was measured:
[1] = system: human colorectal cancer cell line HCT-8 cells; test: Sensor device response to depolarization induced by KCl; assay type: cell-based
Procedure: (§1) In the present example, the sensor device 200 shown in FIG. 2 was used for detection, wherein the distance between the response electrode of the sensor device and the gate end: 65 μm; and the area of the detection region: 10×60 μm^2. Moreover, a specific aptamer of a human colorectal cancer cell line HCT-8 cell was bonded to the response electrode of the sensor device.
(§2) In the present embodiment, source and drain properties were measured and recorded using an Agilent B1530/B1500A semiconductor parameter analyzer. Operating conditions: VD=2.5 V; Vg=2 V; pulse duration=50 μs. The change in source current before and after a gate bias is applied is defined as the current gain.
In the present embodiment, human colorectal cancer cell line HCT-8 cells were used as the target cells. The HCT-8 cells were cultured in an RPMI-1640 cell culture medium (Invitrogen Co., USA). During a subsequent electrical measurement, the HCT-8 cells were suspended in a Hank balanced salt solution having calcium ions and magnesium ions (hereinafter HBSS w/Ca&Mg), a Hank balanced salt solution without calcium ions and magnesium ions (hereinafter HBSS w/o Ca&Mg), or a Hank balanced salt solution having calcium ions (hereinafter HBSS w/Ca) to prepare a test solution. In the Hank balanced salt solution having calcium ions and magnesium ions (HBSS w/Ca&Mg), the calcium ions were 1.2 mM and the magnesium ions are 0.8 mM. […]

[2] = system: human colorectal cancer cell line HCT-8 cells; test: Cadmium block of calcium channels (sensor device response); assay type: cell-based
Procedure: as §1, §2
In the present embodiment, human colorectal cancer cell line HCT-8 cells were used as the target cells. The HCT-8 cells were cultured in an RPMI-1640 cell culture medium (Invitrogen Co., USA). […]
In experimental example 3, HBSS w/Ca and HBSS w/Ca containing different cadmium ion concentrations (5 uM, 10 uM, 20 uM, 50 uM, and 100 uM) are used as reference solutions, and the baselines of the sensor device were calculated using the reference solutions. […]

For `[Cl-].[K+]` [KCl], the “value of the detection current (second current gain minus first current gain, Δ current gain)” value ([1]; KCl concentration of 5 mM in HBSS w/Ca&Mg, cells have polarized potential) was “positive” and the “value of the detection current (second current gain minus first current gain, Δ current gain)” value ([1]; KCl concentration of 10 mM to 30 mM in HBSS w/Ca&Mg, cells depolarized) was “negative”.
With `[Cd+2]` [cadmium ion] the “value of the detection current (Δ current gain)” value ([2]; cadmium concentration further increased from 20 μM to 100 μM in HBSS w/Ca, cells depolarized) was “negative” and the “detection current (Δ current gain)” value ([2]; cadmium ion concentrations of 10 μM and 20 μM in HBSS w/Ca, cells repolarized) was “positive”.

From patent US11029279B2, “Method of detecting cells” (National Tsing Hua University, priority 2018, dated 2021)
